Laboratory results: patent US20180339043A1, “MODIFIED ANTIBODIES” (Janux Therapeutics, Inc., priority 2017, published 2018)
Read-outs that look alike come from different tables or passages of the source. Bridge positions count the residues as written; N and C are the ends. Peptide text beside a SMILES is read from it.

Key:
[1] = tested on: PD-L1 antibody; test: Peptide antibody dissociation ELISA (PD-L1 antibody); assay type: binding; conditions: for pH 5.4: pH 7.2 EC 50 ratio: pH 5.4 vs pH 7.2; for pH 6.0: pH 7.2 EC 50 ratio: pH 6.0 vs pH 7.2
Description: (§1) To begin, peptides were immobilized on neutravidin coated and blocked wells. […] After binding at 4 degrees the plates were washed extensively as before. Next the peptides were incubated with either neutral or acidic pH buffers for approximately 30 minutes and then washed again. The specifically peptide bound antibodies were detected by either anti-mouse Fc or anti-mouse kappa chain HRP conjugated antibodies using standard TMB-based chromogenic ELISA procedures. The effects of pH upon affinity were determined by standard EC50 analysis of each of the distinct pH dilution series binding curves and comparison of their respective EC50 values.

[2] = tested on: anti-mouse CTLA-4 antibody (clone 9D9); test: Peptide antibody dissociation ELISA (CTLA-4 antibody); assay type: binding; conditions: for pH responsiveness: FIG. 11A-11C legend, unoptimized peptide candidates
Description: as §1

[3] = pH 5.4, read-out: EC50 [M] pH 5.4
[4] = pH 6.0, read-out: EC50 [M] pH 6.0
[5] = pH 7.2, read-out: EC50 [M] pH 7.2

Compound | EC50 [1, 3] [M] | pH 5.4: pH 7.2 EC 50 ratio [1] | EC50 [1, 4] [M] | pH 6.0: pH 7.2 EC 50 ratio [1] | EC50 [1, 5] [M] | EC50 [M] pH 7.2 ([2]; pH 7.2) | EC50 [M] pH 7.2 ([1]; pH 7.2) | pH responsiveness [2]
CC[C@H](C)[C@H](NC(=O)[C@H](Cc1c[nH]cn1)NC(=O)[C@H](Cc1ccc(O)cc1)NC(=O)[C@@H](NC(=O)[C@H](CO)NC(=O)[C@@H]1CCCN1C(=O)[C@H](Cc1ccc(O)cc1)NC(=O)[C@H](Cc1ccccc1)NC(=O)[C@H](CC(C)C)NC(=O)[C@@H](N)CCC(N)=O)[C@@H](C)O)C(=O)N[C@H](C(=O)N[C@@H](CC(=O)O)C(=O)O)[C@@H](C)CC [Peptide 20] (H-QLFYPSTYHIID-OH) | 8.4e-10 | 6.7 | 2.1e-10 | 1.7 | 1.3e-10 | – | – | –
CSCC[C@H](NC(=O)CNC(=O)CN)C(=O)N[C@H]1CSSC[C@@H](C(=O)N[C@@H](CCC(N)=O)C(=O)O)NC(=O)[C@H](Cc2c[nH]c3ccccc23)NC(=O)[C@H](CC(N)=O)NC(=O)[C@H](CC(C)C)NC(=O)[C@H](CC(N)=O)NC(=O)[C@H](CO)NC(=O)[C@H](Cc2ccc(O)cc2)NC(=O)[C@H](Cc2ccccc2)NC(=O)[C@H](CC(C)C)NC(=O)[C@H](CCC(=O)O)NC(=O)[C@H](Cc2c[nH]cn2)NC1=O [Peptide 22] (H-GGMCHELFYSNLNWCQ-OH; disulfide 4-15) | 3.5e-10 | 7.8 | 7e-11 | 1.5 | 4.5e-11 | – | – | –
CSCC[C@@H]1NC(=O)[C@H](CC(=O)O)NC(=O)[C@H](C(C)C)NC(=O)[C@@H](NC(=O)[C@H](Cc2c[nH]cn2)NC(=O)CNC(=O)CN)CSSC[C@@H](C(=O)N[C@@H](CCC(N)=O)C(=O)O)NC(=O)[C@H]([C@@H](C)O)NC(=O)[C@H](CCC(N)=O)NC(=O)[C@H](CCC(N)=O)NC(=O)[C@H](Cc2ccc(O)cc2)NC(=O)[C@H](Cc2ccccc2)NC(=O)[C@H](CC(=O)O)NC(=O)[C@H](C(C)C)NC1=O [Peptide 23] (H-GGHCVDMVDFYQQTCQ-OH; disulfide 4-15) | 3.9e-09 | 12.9 | 1.3e-09 | 4.3 | 3e-10 | Inactive | – | –
GGADCLLHDWDSACQI [Peptide 10, control in the PD-L1 antibody test] | – | – | – | – | – | – | Inactive | significant pH responsiveness
GGCFEEHEQLVFQTHC [Peptide 5] | – | – | – | – | – | – | – | significant pH responsiveness
GGCILPGQHESQAIAC [Peptide 6] | – | – | – | – | – | – | – | significant pH responsiveness

More lines, main results first:

EC50 [1, 3] [M] | pH 5.4: pH 7.2 EC 50 ratio [1] | EC50 [1, 4] [M] | pH 6.0: pH 7.2 EC 50 ratio [1] | EC50 [1, 5] [M] | EC50 [M] pH 7.2 ([2]; pH 7.2) | EC50 [M] pH 7.2 ([1]; pH 7.2) | Compound | pH responsiveness [2]
1.3e-09 | 6.6 | 5.6e-10 | 2.8 | 2e-10 | – | – | CC(C)C[C@@H]1NC(=O)CNC(=O)[C@H](CO)NC(=O)[C@H](CCCCN)NC(=O)[C@H](CC(N)=O)NC(=O)[C@H](Cc2c[nH]cn2)NC(=O)[C@@H](NC(=O)CNC(=O)CN)CSSC[C@@H](C(=O)O)NC(=O)[C@H](Cc2ccc(O)cc2)NC(=O)[C@H](Cc2c[nH]cn2)NC(=O)[C@H](Cc2ccc(O)cc2)NC(=O)[C@H](Cc2ccccc2)NC1=O [Peptide 24] (H-GGCHNKSGLFYHYC-OH; disulfide 3-14) | –
– | – | 9e-10 | – | – | – | – | CC(C)C[C@H](NC(=O)[C@H](CCC(=O)O)NC(=O)[C@H](CCC(=O)O)NC(=O)[C@H](Cc1ccc(O)cc1)NC(=O)[C@H](Cc1ccccc1)NC(=O)[C@H](Cc1ccc(O)cc1)NC(=O)[C@H](CC(C)C)NC(=O)[C@@H]1CCCN1C(=O)[C@H](CO)NC(=O)[C@@H](NC(=O)[C@@H](N)CCC(N)=O)C(C)C)C(=O)N[C@@H](C)C(=O)O [Peptide 27] | –
1.5e-09 | 6.5 | 4.9e-10 | 2.1 | 2.3e-10 | – | – | CC[C@H](C)[C@@H]1NC(=O)[C@H](CC(=O)O)NC(=O)[C@H](C(C)C)NC(=O)[C@H](CCC(N)=O)NC(=O)[C@@H]2CCCN2C(=O)[C@H](CCC(=O)O)NC(=O)[C@H](Cc2ccc(O)cc2)NC(=O)[C@H](Cc2ccccc2)NC(=O)[C@H]([C@@H](C)O)NC(=O)[C@H](CO)NC(=O)[C@@H](NC(=O)[C@H](CC(C)C)NC(=O)CNC(=O)CN)CSSC[C@@H](C(=O)N[C@@H](Cc2ccc(O)cc2)C(=O)O)NC1=O [Peptide 29] (H-GGLCSTFYEPQVDICY-OH; disulfide 4-15) | –
1.5e-09 | – | 3.6e-10 | – | – | – | – | CC(C)[C@@H]1NC(=O)[C@@H](NC(=O)CNC(=O)CN)CSSC[C@@H](C(=O)O)NC(=O)[C@H](CC(=O)O)NC(=O)[C@@H]2CCCN2C(=O)[C@H](CCCNC(=N)N)NC(=O)[C@H](CCC(N)=O)NC(=O)[C@H](Cc2c[nH]cn2)NC(=O)[C@H](Cc2c[nH]cn2)NC(=O)[C@H](Cc2ccccc2)NC(=O)[C@H](Cc2ccccc2)NC(=O)[C@H](Cc2c[nH]cn2)NC1=O [Peptide 31] | –
